The results in this text go back to US8258175B2, “Isoindolin-1-one derivatives” (Cancer Research Technology Limited, priority 2004, dated 2012).

The target in one data set is T1, MDM2-p53 interaction (Homo sapiens, UniProt Q00987).
T1 construct: made in house; host or cells: in vitro translation (cell-free)
In words: ELISA assay of MDM2-p53 complex formation (MDM2 binding to immobilised IP3 p53-derived peptide). As to the method: Streptavidin-coated 96-well plates are used to immobilise a biotin-tagged IP3 p53-derived peptide ([…]). This is a peptide analogue derived from the p53 binding site for MDM2 ([…]). […] Aliquots of MDM2 generated by in vitro translation are pre-incubated for 20 minutes at room temperature (i.e. 20-25° C.) with test compounds and controls, before transfer into the IP3-coated 96-well plates. Following a further incubation period of 90 minutes at 4° C., the plates are washed to remove unbound MDM2 and the residual bound MDM2 is detected using a primary monoclonal antibody (MDM2 Ab-1, clone IF2, Oncogene Research Products) and HRP-conjugated secondary antibody (Goat anti-mouse, Dako PO447). The HRP (horseradish peroxidase) is measured by a chemiluminescence reaction using standard reagents (Amersham Pharmacia™ RPN 2106) and an automatic injection 96-well plate illuminometer (EG & G Berthold Microplate LB 96V).
Compound NU8231 is currently included as a standard “lead compound” positive control. […] The AP peptide is included as a positive control for biological evaluation of the isoindolinones in the cell free binding assays.
All compounds are dissolved in DMSO and tested at three standard concentrations (initially 20 μM, 100 μM and 500 μM) in the presence of a fixed final concentration of 5% DMSO. The percentage inhibition of complex formation is expressed relative to a DMSO only control and an IC50, defined as the concentration required for 50% inhibition of MDM2-p53 complex formation, determined by interpolation.
For orientation: In an ELISA, binding on a coated surface is turned into a signal by an enzyme label.

[1] abbreviates: n=3 independent determinations, 5% DMSO, interpolated from three standard concentrations.

Bounds are passed on as bounds.

T1 sequence (Q00987 whole entry): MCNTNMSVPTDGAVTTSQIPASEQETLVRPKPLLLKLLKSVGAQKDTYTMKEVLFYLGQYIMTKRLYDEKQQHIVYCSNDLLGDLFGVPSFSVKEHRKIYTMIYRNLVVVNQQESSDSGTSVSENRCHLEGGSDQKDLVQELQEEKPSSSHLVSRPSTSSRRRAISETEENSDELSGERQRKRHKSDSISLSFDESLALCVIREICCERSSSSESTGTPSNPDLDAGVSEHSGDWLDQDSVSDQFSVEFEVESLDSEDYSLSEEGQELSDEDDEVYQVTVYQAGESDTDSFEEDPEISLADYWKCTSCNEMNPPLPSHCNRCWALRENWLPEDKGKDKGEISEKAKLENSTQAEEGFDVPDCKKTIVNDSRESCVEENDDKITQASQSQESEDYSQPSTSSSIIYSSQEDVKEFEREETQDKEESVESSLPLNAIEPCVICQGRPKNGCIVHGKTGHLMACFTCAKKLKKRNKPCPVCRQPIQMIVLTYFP

As usually defined, the IC50 is the concentration that inhibits the measured activity by half. Low readings indicate greater potency in that assay, high ones weaker potency in that assay. `CCCN1C(=O)c2ccccc2C1(OCCCO)c1ccccc1` (stereo not shown) [NU8033, 3-(3-Hydroxy-propoxy)-3-phenyl-2-propyl-2,3-dihydro-1H-isoindolin-1-one] registered a 50% inhibitory concentration (IC50) at MDM2-p53 interaction (setting [1]) above 500000 nM.
Turning to `O=C1c2ccccc2C(OCCCO)(c2ccccc2)N1Cc1ccccc1` (stereo not shown) [NU8034, 2-Benzyl-3-(3-Hydroxy-propoxy)-3-phenyl-2,3-dihydro-1H-isoindolin-1-one], the IC50 on MDM2-p53 interaction (setting [1]) was found to be 245000 ± 11000 nM.
Usually melting point stands for the temperature of the solid-liquid transition. `CC(C)(C)c1ccc(COC2(c3ccccc3)c3ccccc3C(=O)N2Cc2ccccc2)cc1` (stereo not shown) [NU8113, 2-Benzyl-3-(4-tert-butyl-benzyloxy)-3-phenyl-2,3-dihydro-isoindolin-1-one] gave a melting point of 107 to 108 °C. Besides, the IC50 at MDM2-p53 interaction (setting [1]) was 92000 ± 11000 nM.
Turning to `O=C1c2ccccc2C(OCCc2ccccn2)(c2ccccc2)N1Cc1ccccc1` (stereo not shown) [NU8133, 2-Benzyl-3-phenyl-3-(2-pyridin-2-yl-ethoxy)-2,3-dihydro-isoindolin-1-one], at MDM2-p53 interaction (setting [1]), the 50% inhibitory concentration (IC50) is 206000 ± 130000 nM.
With `CC(C)COc1ccc(C2(NC(=O)c3ccccc3)c3ccccc3C(=O)N2CC2CCCCC2)cc1` (stereo not shown) [NU8200, N-[2-Cyclohexylmethyl-1-(4-isobutoxyphenyl)-3-oxo-2,3-dihydro-1H-isoindolin-1-yl]benzamide], the IC50 at MDM2-p53 interaction (setting [1]) stood at 123000 ± 30000 nM.
Still for that read-out and setting: as for `CCOc1ccc(C2(NC(=O)c3ccccc3)c3ccccc3C(=O)N2CC2CCCCC2)cc1` (stereo not shown) [NU8201, N-[2-Cyclohexylmethyl 1-(4-ethoxyphenyl)-3-oxo-2,3-dihydro-1H-isoindolin-1-yl]benzamide], the figure is 209000 ± 28000 nM; as for `CSc1ccc(C2(NC(=O)c3ccccc3)c3ccccc3C(=O)N2CC2CCCCC2)cc1` (stereo not shown) [NU8202, N-[2-Cyclohexylmethyl-1-(4-methylsulfanylphenyl)-3-oxo-2,3-dihydro-1H-isoindolin-1-yl]benzamide], 82000 ± 16000 nM; as for `O=C1c2ccccc2C(OCCNc2ccccc2)(c2ccccc2)N1Cc1ccccc1` (stereo not shown) [NU8204, 2-Benzyl-3-phenyl-3-(2-phenylaminoethoxy)-2,3-dihydroisoindolin-1-one], 116000 ± 20000 nM.
The molecule `COc1cc(COC2(c3ccccc3)c3ccccc3C(=O)N2Cc2ccccc2)cc(OC)c1O` (stereo not shown) [NU8205, 2-Benzyl-3-(4-hydroxy-3,5-dimethoxybenzyloxy)-3-phenyl-2,3-dihydro-isoindolin-1-one] showed a half-maximal inhibitory concentration (IC50) on MDM2-p53 interaction (setting [1]) of 17900 ± 300 nM.
`CCCOC1(c2ccccc2)c2ccccc2C(=O)N1CCO` (stereo not shown) [NU8206, 2-(2-Hydroxyethyl)-3-phenyl-3-propoxy-2,3-dihydroisoindolin-1-one]: the 50% inhibitory concentration (IC50) at MDM2-p53 interaction (setting [1]) is above 500000 nM.
At MDM2-p53 interaction (setting [1]), `O=C1c2ccccc2C(OCCN2CCNCC2)(c2ccccc2)N1Cc1ccccc1` (stereo not shown) [NU8211, 2-Benzyl-3-phenyl-3-(2-piperazin-1-ylethoxy)-2,3-dihydroisoindolin-1-one] had an IC50 of 315000 ± 72000 nM.
For the molecule `CC(=O)NCCN1C(=O)c2ccccc2C1(OCc1ccc(C(C)(C)C)cc1)c1ccccc1` (stereo not shown) [NU8213, N-{2-[1-(4-t-Butyl-benzyloxy)-3-oxo-1-phenyl-1,3-dihydro-isoindolin-2-yl]-ethyl}-acetamide], the 50% inhibitory concentration (IC50) at MDM2-p53 interaction (setting [1]) was 14400 ± 300 nM.
Molecule `CC(C)(C)c1ccc(COC2(c3ccccc3)c3ccccc3C(=O)N2CCc2cnc[nH]2)cc1` (stereo not shown) [NU8214, 3-(4-t-Butylbenzyloxy)-2-[2-(3H-imidazol-4-yl)-ethyl]-3-phenyl-2,3-dihydroisoindolin-1-one] yielded a half-inhibitory concentration (IC50) on MDM2-p53 interaction (setting [1]) of 214000 ± 56000 nM.
Same read-out and setting: as for `C=C(C)C(=O)OCCN1C(=O)c2ccccc2C1(NC(CO)C(O)c1ccccc1)c1ccccc1` (stereo not shown) [NU8216, 2-Methylacrylic acid 2-[1-(2-hydroxy-1-hydroxymethyl-2-phenylethylamino)-3-oxo-1-phenyl-1,3-dihydroisoindolin-2-yl]ethyl ester], the figure is 103000 ± 43000 nM.
As to `CCCN1C(=O)c2ccccc2C1(OCCc1ccccn1)c1ccccc1` (stereo not shown) [NU8224, 3-Phenyl-2-propyl-3-(2-pyridin-2-yl-ethoxy)-2,3-dihydroisoindolin-1-one], the melting point lay in the range of 122.3 to 124.1 °C.
`COc1ccc(COC2(c3ccccc3)c3ccccc3C(=O)N2Cc2ccccc2)cc1` (stereo not shown) [NU8226, 2-Benzyl-3-(4-methoxybenzyloxy)-3-phenyl-2,3-dihydroisoindolin-1-one]: the concentration for half-maximal inhibition (IC50) on MDM2-p53 interaction (setting [1]) amounted to 456000 ± 44000 nM.
In the case of `C=CCOc1c(OC)cc(COC2(c3ccc(Cl)cc3)c3ccccc3C(=O)N2CCC)cc1OC` (stereo not shown) [NU8232, 3-(4-Allyloxy-3,5-dimethoxybenzyloxy)-3-(4-chlorophenyl)-2-propyl-2,3-dihydroisoindolin-1-one], the IC50 at MDM2-p53 interaction (setting [1]) was determined as 264000 ± 38000 nM.
For the molecule `CCCN1C(=O)c2ccccc2C1(OCc1ccc(C(C)(C)C)cc1)c1ccc(OCOCC[Si](C)(C)C)cc1` (stereo not shown) [NU8233, 3-(4-tert-Butylbenzyloxy)-2-propyl-3-[4-(2-trimethylsilanylethoxymethoxy)-phenyl]-2,3-dihydroisoindolin-1-one], on MDM2-p53 interaction (setting [1]), the IC50 came to 464000 ± 31000 nM.
For the molecule `CCCN1C(=O)c2ccccc2C1(OCCCO)c1ccc(OCOCC[Si](C)(C)C)cc1` (stereo not shown) [NU8234, 3-(3-Hydroxypropoxy)-2-propyl-3-[4-(2-trimethylsilanylethoxymethoxy)-phenyl]-2,3-dihydroisoindolin-1-one], the IC50 at MDM2-p53 interaction (setting [1]) came to 476000 ± 24000 nM.
Turning to `CCCN1C(=O)c2ccccc2C1(OCCc1ccccn1)c1ccc(OCOCC[Si](C)(C)C)cc1` (stereo not shown) [NU8235, 2-Propyl-3-(2-pyridin-2-yl-ethoxy)-3-[4-(2-trimethylsilanylethoxymethoxy)-phenyl]-2,3-dihydroisoindolin-1-one], the IC50 at MDM2-p53 interaction (setting [1]) was 312000 ± 22000 nM.
In turn, `CCCN1C(=O)c2ccccc2C1(OCc1cc(OC)c(O)c(OC)c1)c1ccc(OCOCC[Si](C)(C)C)cc1` (stereo not shown) [NU8236, 3-(4-Hydroxy-3,5-dimethoxybenzyloxy)-2-propyl-3-[4-(2-trimethylsilanylethoxy-methoxy)-phenyl]-2,3-dihydroisoindolin-1-one] came in with a concentration for half-maximal inhibition (IC50) at MDM2-p53 interaction (setting [1]) of 118000 ± 24000 nM.
In turn, `CCCN1C(=O)c2ccccc2C1(OCc1ccccc1)c1ccc(Cl)cc1` (stereo not shown) [NU8237, 3-Benzyloxy-3-(4-chlorophenyl)-2-propyl-2,3-dihydroisoindolin-1-one] had an IC50 on MDM2-p53 interaction (setting [1]) of 409000 ± 43000 nM.
On to `COc1cc(COC2(c3ccc(OCOCC[Si](C)(C)C)cc3)c3ccccc3C(=O)N2Cc2ccccc2)cc(OC)c1O` (stereo not shown) [NU8238, 2-Benzyl-3-(4-hydroxy-3,5-dimethoxybenzyloxy)-3-[4-(2-trimethylsilanylethoxy-methoxy)phenyl]-2,3-dihydroisoindolin-1-one], for which the IC50 on MDM2-p53 interaction (setting [1]) was determined as 257000 ± 34000 nM.
Turning to `C[Si](C)(C)CCOCOc1ccc(C2(O)c3ccccc3C(=O)N2Cc2ccccc2)cc1` (stereo not shown) [NU8239, 2-Benzyl-3-hydroxy-3-[4-(2-trimethylsilanylethoxymethoxy)phenyl]-2,3-dihydroisoindol-1-one], on MDM2-p53 interaction (setting [1]), the IC50 came to 366000 ± 61000 nM.
Regarding `C=CCOc1ccc(COC2(c3ccc(Cl)cc3)c3ccccc3C(=O)N2CCC)cc1` (stereo not shown) [NU8240], the IC50 on MDM2-p53 interaction (setting [1]) worked out at 304000 ± 42000 nM.
`C=CCOc1cc(COC2(c3ccc(Cl)cc3)c3ccccc3C(=O)N2CCC)ccc1OC` (stereo not shown) [NU8241, 3-(4-chlorophenyl)-3-(3-allyloxy-4-methoxy-benzyloxy)-2-propyl-2,3-dihydroisoindolin-1-one] showed an IC50 at MDM2-p53 interaction (setting [1]) of 83000 ± 5000 nM.
Still for that read-out and setting: as for `C=CCOc1ccc(COC2(c3ccc(Cl)cc3)c3ccccc3C(=O)N2CCC)cc1OC` (stereo not shown) [NU8242, 3-(4-chlorophenyl)-3-(4-allyloxy-3-methoxy-benzyloxy)-2-propyl-2,3-dihydroisoindolin-1-one], the figure is 272000 ± 5000 nM; as for `CCCN1C(=O)c2ccccc2C1(OCc1ccc(O)cc1)c1ccc(Cl)cc1` (stereo not shown) [NU8243], 7700 ± 300 nM.
Molecule `CCCN1C(=O)c2ccccc2C1(OCc1ccc(OC)c(O)c1)c1ccc(Cl)cc1` (stereo not shown) [NU8244] came in with a half-inhibitory concentration (IC50) at MDM2-p53 interaction (setting [1]) of 9500 ± 1900 nM.
Regarding `C#CCN1C(=O)c2ccccc2C1(OCc1cc(OC)c(O)c(OC)c1)c1ccc(Cl)cc1` (stereo not shown) [NU8245, 3-(4-Chlorophenyl)-3-(4-hydroxy-3,5-dimethoxybenzyloxy)-2-prop-2-ynyl-2,3-dihydroisoindolin-1-one], at MDM2-p53 interaction (setting [1]), the half-maximal inhibitory concentration (IC50) was 23000 ± 4000 nM.
As for `CCCN1C(=O)c2ccccc2C1(OC1CCC(O)C1)c1ccc(Cl)cc1` (stereo not shown) [NU8253, 3-(4-Chlorophenyl)-3-(3-hydroxycyclopentyloxy)-2-propylisoindolin-1-one], the IC50 at MDM2-p53 interaction (setting [1]) came to 3000 ± 700 nM.
Molecule `O=C1c2ccccc2C(OC2CCC(O)C2)(c2ccc(Cl)cc2)N1CCc1ccccc1` (stereo not shown) [NU8257, 3-(4-Chlorophenyl)-3-(3-hydroxycyclopentyloxy)-2-phenethylisoindolin-1-one] gave a half-inhibitory concentration (IC50) at MDM2-p53 interaction (setting [1]) of 5500 ± 1700 nM.
`O=C1c2ccccc2C(OC2CCC(O)C2)(c2ccc(Cl)cc2)N1Cc1ccc([N+](=O)[O-])cc1` (stereo not shown) [NU8261, 3-(4-Chlorophenyl)-3-(3-hydroxycyclopentyloxy)-2-(4-nitrobenzyl)-2,3-dihydroisoindolin-1-one] had an IC50 at MDM2-p53 interaction (nM) of 700 nM.
On to `O=C1c2ccccc2C(O)(c2ccc(Cl)cc2)N1CC1CC1` (stereo not shown) [NU8265, 3-(4-Chlorophenyl)-2-cyclopropylmethyl-3-hydroxy-2,3-dihydroisoindolin-1-one], for which the IC50 at MDM2-p53 interaction (setting [1]) is above 20000 nM.
`O=C1c2ccccc2C(OC2CCC(O)C2)(c2ccc(Cl)cc2)N1Cc1ccc(Cl)cc1` (stereo not shown) [NU8274, 2-(4-Chlorobenzyl)-3-(4-chlorophenyl)-3-(3-hydroxycyclopentyloxy)isoindolin-1-one] came in with a half-maximal inhibitory concentration (IC50) on MDM2-p53 interaction (setting [1]) of 2400 ± 700 nM.
Consider `O=C1c2ccccc2C(OC2CCC(O)C2)(c2ccc(Cl)cc2)N1CC1CC1` (stereo not shown) [NU8280, 3-(4-Chlorophenyl)-2-cyclopropylmethyl-3-(3-hydroxycyclopentyloxy)-2,3-dihydro-isoindolin-1-one], for which the half-maximal inhibitory concentration (IC50) at MDM2-p53 interaction (setting [1]) was determined as 15400 ± 2300 nM.
